Results reported in patent US9427415B2, “Methods and compositions for modifying sensorial perception” (The Procter & Gamble Company, priority 2014, dated 2016).
Where two headings read alike, the source gives them in different places.

Assays:
human TRPA1 = biological target: T1, human TRPA1 (Homo sapiens, UniProt O75762, K186N/R3C/R58T); assay: Intracellular calcium (Fluo-4, FLIPR) activation of TRPA1 cells by GRAS compounds; assay type: cell-based; conditions: for activation at 1000 µM / activation at 100 µM: read-out: A1 activation, % of agonist value;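 for all read-outs here: TRPA1-expressing cells, fluorescence read on a FLIPR Tetra (ex 488 nm, em 514 nm) every 2 s for 10 min after compound addition, baseline subtracted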
T1 construct: expressed in transfected cells; pcDNA3 control cells

TRPA1V1 = assay: Intracellular calcium (Fluo-4, FLIPR) activation of TRPA1V1 cells (co-expressing TRPA1 and TRPV1) by GRAS compounds; assay type: cell-based, human;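 note: HEK293 cells co-expressing TRPA1 and TRPV1, fluorescence read at 488/514 nm after baseline subtraction, recorded every 2 s over 10 min, ionomycin 10 µM and buffer as controls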
Experimental: TRPV1, TRPA1, TRPA1V1 and pcDNA3 cells were grown in 15 mL growth medium [high glucose DMEM (Dulbecco's modification of Eagle's medium) supplemented with 10% FBS (fetal bovine serum), 100 μg/mL penicillin/streptomycin, 100 μg/mL G418] in a 75 cm^2 flask for 3 days in a mammalian cell culture incubator at 33° C. and 5% CO2. TRP Cells were detached with 8 mL of PBS (without calcium or magnesium); for pcDNA3 cells, trypsin was used for releasing the cells. The detached cells were spun at low speed (800-900 rpm for 3 min) to pellet the cells. […] The cells were washed once with 45 mL assay buffer (1×HBSS, 20 mM HEPES) by low speed centrifugation (800-900 rpm for 3 min) and resuspended in 11 mL of the assay buffer in a reagent reservoir. […] The plates were set at room temperature for 30 min. The plates were read in a FLIPR^TETRA instrument (Molecular Devices, Sunnyvale, Calif.) at λex 488 nm and λem 514 nm to record baseline fluorescence following which 20 μL of test material at 1 mM or 100 μM final concentration for pure compounds in a GRAS library or 0.004% for extracts. For agonists, capsaicin 350 nM and AITC at 30 μM; and for controls, ionomycin 10 μM and buffer alone) was added to each well using the dispenser provided in the FLIPR. The data point was recorded every 2 seconds for a total of 10 min.
Average value for activation from three independent assay plates are presented as % of agonist value (AITC, 30 μM for TRPA1 and capsaicin, 350 nM for TRPV1. For TRPA1V1, we used AITC, 30 μM or capsaicin, 350 nM depending on if the compound is an A1 agonist or a V1 agonist. For compounds that activated both A1 and V1, we used AITC for normalization). Variation among triplicates was within 10% of each other. Assayed at 1 mM for pure compounds and 0.004% for extracts.

human TRPV1 = biological target: T2, human TRPV1 (Homo sapiens, UniProt Q8NER1, M315I/T336M); assay: Intracellular calcium (Fluo-4, FLIPR) activation of TRPV1 cells by GRAS compounds; assay type: cell-based; conditions: for activation at 1000 µM / activation at 100 µM: read-out: V1 activation, % of agonist value; for TRPV1 activation selectivity, in words: statement in description, see Table 1(i);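 for all read-outs here: TRPV1-expressing cells, FLIPR fluorescence at 488/514 nm with baseline subtracted, sampled every 2 s for 10 min after adding compound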
T2 construct: expressed in transfected cells; pcDNA3 control cells

[1] = Table 1(b), 1 mM, relative to AITC 30 μM
[2] = Table 1(b), 1 mM, relative to capsaicin 350 nM
[3] = Table 1(a), 1 mM, relative to AITC 30 μM, average of three plates
[4] = Table 1(a), 1 mM, relative to capsaicin 350 nM, average of three plates
[5] = Table 1(a), 100 μM (*), relative to AITC 30 μM
[6] = Table 1(a), 100 μM (*), relative to capsaicin 350 nM
[7] = Table 1(i), 1 mM, relative to AITC 30 μM, […]
[8] = Table 1(i), 1 mM, relative to AITC 30 μM or capsaicin 350 nM depending on compound, […]
[9] = Table 1(i), 1 mM, relative to capsaicin 350 nM, […]
[10] = Table 1(c), 1 mM, relative to AITC 30 μM
[11] = Table 1(i), 100 μM (*), relative to AITC 30 μM, […]
[12] = Table 1(i), 100 μM (*), relative to AITC 30 μM or capsaicin 350 nM depending on compound, […]
[13] = Table 1(i), 100 μM (*), relative to capsaicin 350 nM, […]
[14] = Table 1(b), 100 μM (*), relative to AITC 30 μM
[15] = Table 1(d), 100 μM (*), relative to AITC 30 μM
[16] = Table 1(g), 1 mM, relative to capsaicin 350 nM
[17] = Table 1(e), 100 μM (*), relative to AITC 30 μM

T2 sequence (Q8NER1 whole entry M315I/T336M): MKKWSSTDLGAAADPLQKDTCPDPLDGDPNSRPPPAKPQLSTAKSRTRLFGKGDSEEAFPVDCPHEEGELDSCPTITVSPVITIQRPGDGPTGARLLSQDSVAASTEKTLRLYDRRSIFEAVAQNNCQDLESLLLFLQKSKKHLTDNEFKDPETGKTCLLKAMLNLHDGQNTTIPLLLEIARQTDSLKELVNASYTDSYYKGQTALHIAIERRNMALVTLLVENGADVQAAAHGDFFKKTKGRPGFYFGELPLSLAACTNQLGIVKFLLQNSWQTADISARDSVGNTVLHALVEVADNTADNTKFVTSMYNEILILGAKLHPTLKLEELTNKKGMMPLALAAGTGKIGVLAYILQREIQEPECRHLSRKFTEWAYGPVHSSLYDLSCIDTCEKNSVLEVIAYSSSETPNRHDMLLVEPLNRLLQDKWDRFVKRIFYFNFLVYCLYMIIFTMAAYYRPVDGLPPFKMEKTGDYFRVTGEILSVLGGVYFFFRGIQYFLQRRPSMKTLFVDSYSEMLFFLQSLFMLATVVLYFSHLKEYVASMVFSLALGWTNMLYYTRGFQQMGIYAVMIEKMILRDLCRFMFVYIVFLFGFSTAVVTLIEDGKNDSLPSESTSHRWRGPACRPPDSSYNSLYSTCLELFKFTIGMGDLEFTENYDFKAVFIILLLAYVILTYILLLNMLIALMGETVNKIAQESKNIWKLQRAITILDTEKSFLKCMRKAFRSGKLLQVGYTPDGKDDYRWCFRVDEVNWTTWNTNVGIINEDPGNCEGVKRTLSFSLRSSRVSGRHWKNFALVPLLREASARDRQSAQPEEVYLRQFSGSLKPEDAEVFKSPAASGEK
T1 sequence (O75762 whole entry R3C/R58T/K186N): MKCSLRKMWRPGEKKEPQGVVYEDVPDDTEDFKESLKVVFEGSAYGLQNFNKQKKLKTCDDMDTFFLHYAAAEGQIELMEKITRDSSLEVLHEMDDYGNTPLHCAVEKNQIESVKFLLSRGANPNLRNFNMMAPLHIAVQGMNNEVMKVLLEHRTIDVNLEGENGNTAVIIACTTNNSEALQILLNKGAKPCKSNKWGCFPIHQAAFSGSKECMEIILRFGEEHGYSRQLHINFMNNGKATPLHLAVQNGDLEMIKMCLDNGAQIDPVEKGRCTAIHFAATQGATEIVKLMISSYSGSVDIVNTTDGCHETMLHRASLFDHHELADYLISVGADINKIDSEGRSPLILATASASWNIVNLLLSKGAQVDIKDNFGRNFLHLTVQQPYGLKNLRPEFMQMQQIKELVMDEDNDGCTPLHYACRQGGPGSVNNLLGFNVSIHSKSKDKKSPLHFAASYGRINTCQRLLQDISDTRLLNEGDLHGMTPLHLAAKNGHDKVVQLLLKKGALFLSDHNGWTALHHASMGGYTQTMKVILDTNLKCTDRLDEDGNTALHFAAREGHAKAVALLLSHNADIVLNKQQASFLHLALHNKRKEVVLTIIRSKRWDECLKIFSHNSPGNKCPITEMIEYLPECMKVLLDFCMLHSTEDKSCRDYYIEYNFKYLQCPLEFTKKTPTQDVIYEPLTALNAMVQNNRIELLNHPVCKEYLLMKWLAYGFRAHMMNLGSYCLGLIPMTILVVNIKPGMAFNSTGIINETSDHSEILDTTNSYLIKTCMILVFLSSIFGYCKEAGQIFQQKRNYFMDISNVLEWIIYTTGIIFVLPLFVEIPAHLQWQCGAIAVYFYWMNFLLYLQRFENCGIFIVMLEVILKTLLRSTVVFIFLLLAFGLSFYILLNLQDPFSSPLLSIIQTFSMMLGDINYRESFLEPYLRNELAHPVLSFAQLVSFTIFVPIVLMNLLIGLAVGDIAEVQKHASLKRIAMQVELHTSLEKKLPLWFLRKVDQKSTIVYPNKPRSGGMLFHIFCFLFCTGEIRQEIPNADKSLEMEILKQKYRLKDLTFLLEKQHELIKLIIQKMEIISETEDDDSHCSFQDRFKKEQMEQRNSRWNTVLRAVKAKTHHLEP

Compound | activation at 1000 µM (human TRPA1; [1]) [%] | A1V1 activation, % of agonist value (TRPA1V1; [1]) [%] | activation at 1000 µM (human TRPV1; [2]) [%] | A1V1 activation, % of agonist value (TRPA1V1; [3]) [%] | activation at 1000 µM (human TRPA1; [3]) [%] | activation at 1000 µM (human TRPV1; [4]) [%] | further results
CC1=CC(=O)C(C(C)C)CC1 (stereo not drawn) [Piperitone] | 90.1 | 109.1 | 53.3 |  |  |  | 
COc1cc(C2OCC(C)O2)ccc1O (stereo not drawn) [Vanillin propylene glycol acetal] |  | 94.49 |  |  |  |  | A1 activation, % of agonist value (human TRPA1; [1]): 76.21%; V1 activation, % of agonist value (human TRPV1; [2]): 57.97%
CC(C)CCOC(=O)CCc1ccco1 [Isoamyl 3-(2-furan)propionate] |  | 106.9 |  |  |  |  | A1 activation, % of agonist value (human TRPA1; [1]): 123.3%; V1 activation, % of agonist value (human TRPV1; [2]): 32.66%
CC(=O)/C=C/C=C(\C)CCC=C(C)C [Pseudoionone] |  |  |  | 127.2 |  |  | A1 activation, % of agonist value (human TRPA1; [3]): 105.5%; V1 activation, % of agonist value (human TRPV1; [4]): 20.76%
C=CC(=O)CCCCC [1-Octen-3-one] |  |  |  | 98.9 | 118 | 63.2 | 
CC(=O)OCc1ccc2c(c1)OCO2 [Piperonyl acetate] |  | 78.00 |  |  |  |  | activation at 1000 µM (human TRPA1): 62.7%; activation at 1000 µM (human TRPV1): 20.9%
Cc1ccc(C(C)C)c(O)c1 [Thymol] | 159 | 105.7 | 106 |  |  |  | 
CC(C)=CCCC(C)=CCCC(C)=CC=O [Farnesal] |  |  |  | 104.4 |  |  | A1 activation, % of agonist value (human TRPA1; [3]): 97.58%; V1 activation, % of agonist value (human TRPV1; [4]): 41.22%
O=C(O)C(=O)Cc1ccccc1 [Phenylpyruvic acid] |  |  |  | 74.05 | 68 | 32.5 | 
c1ccc2scnc2c1 [Benzothiazole] |  |  |  |  |  |  | activation at 100 µM (human TRPA1; [5]): 51.3%; A1V1 activation, % of agonist value (TRPA1V1; [5]): 74.4%; activation at 100 µM (human TRPV1; [6]): 33.4%
CCCCCC(=O)CCCC(=O)O [5-Oxodecanoic acid] | 28.6 | 39.34 | 53.4 |  |  |  | 
COc1cc(CCC(C)=O)ccc1O [Vanillylacetone] | 22.3 | 37.75 | 60 |  |  |  | 
CCCCCC/C=C/C=O [(E)-2-Nonenal] | 130 | 61.8 | 89 |  |  |  | 
CC(C)C(C=O)c1ccccc1 (stereo not drawn) [3-Methyl-2-Phenylbutyraldehyde] |  |  |  | 93.08 | 90.6 | 75.8 | 
OCCCc1ccccc1 [3-Phenylpropanol] | 51.4 | 64.94 | 32 |  |  |  | 
Cc1ccc(C)c(O)c1C [2,3,6-Trimethylphenol] |  |  |  | 91.4 | 90 | 74.8 | 
CCOCc1ccc(O)c(OC)c1 [Vanillyl ethyl ether] |  |  |  | 59.64 | 38 | 67.6 | 
CCCOC(=O)c1ccc(O)cc1 [Propylparaben] |  |  |  |  |  |  | activation at 1000 µM (human TRPA1; [7]): 93.2%; TRPA1 activation selectivity, in words (human TRPA1; statement in description, see Table 1(i)): TRPA1 activator which does not modulate TRPV1 or TRPA1V1; A1V1 activation, % of agonist value (TRPA1V1; [8]): 2.1%; activation at 1000 µM (human TRPV1; [9]): 1.6%
C=CCSSSCC=C [Allyl-trisulfide] |  |  |  | 89.08 | 83.5 | 32.9 | 
CCCCCC1C(=O)CCC1CC(=O)OC (stereo not drawn) [Hedione, Methyl dihydrojasmonate] | 43.5 | 60.64 | 25.6 |  |  |  | activation at 1000 µM (human TRPA1; [10]): 54.4%; A1V1 activation, % of agonist value (TRPA1V1; [10]): 59.58%

Compound | activation at 1000 µM (human TRPA1; [1]) [%] | A1V1 activation, % of agonist value (TRPA1V1; [1]) [%] | activation at 1000 µM (human TRPV1; [2]) [%] | A1V1 activation, % of agonist value (TRPA1V1; [3]) [%] | activation at 1000 µM (human TRPA1; [3]) [%] | activation at 1000 µM (human TRPV1; [4]) [%] | further results
CCCCCC1CCC(=O)O1 (stereo not drawn) [Gamma-Nonalactone] |  |  |  | 69.15 |  |  | A1 activation, % of agonist value (human TRPA1; [3]): 33.32%; V1 activation, % of agonist value (human TRPV1; [4]): 66.34%
CCCSSc1ccoc1C [Propyl 2-methyl-3-furyl disulfide] |  |  |  | 194.3 | 210 | 25 | activation at 1000 µM (human TRPA1; [10]): 266%; A1V1 activation, % of agonist value (TRPA1V1; [10]): 242.5%
C=C(C)[C@@H]1CC=C(CO)CC1 [Perillyl alcohol] |  |  |  | 73.28 | 82 | 20.4 | 
O=C(O)CC(O)C(=O)O (stereo not drawn) [Malic acid] |  |  |  |  |  |  | activation at 1000 µM (human TRPA1; [7]): 1.9%; A1V1 activation, % of agonist value (TRPA1V1; [8]): 2.4%; activation at 1000 µM (human TRPV1; [9]): 67.5%; TRPV1 activation selectivity, in words (human TRPV1): TRPV1 activators which do not modulate TRPA1 or TRPA1V1
CC(C)C(=O)OCc1ccc2c(c1)OCO2 [Piperonyl isobutyrate] | 61 | 82.33 | 30 |  |  |  | 
O=C1CCCC1C1CCCC1 (stereo not drawn) [2-Cyclopentylcyclopentanone] | 25 | 90.8 | 24 |  |  |  | 
Cc1ccc(C(C)C)cc1O [Carvacrol] | 115 | 134.1 | 84.6 |  |  |  | 
Cc1nccnc1SCc1ccco1 [2-Furfurylthio-3-methylpyrazine] |  |  |  |  |  |  | activation at 100 µM (human TRPA1; [5]): 80.7%; A1V1 activation, % of agonist value (TRPA1V1; [5]): 80.9%; activation at 100 µM (human TRPV1; [6]): 31.3%
Desoxycholic acid |  |  |  |  |  |  | A1 activation, % of agonist value (human TRPA1; [11]): 3.2%; A1V1 activation, % of agonist value (TRPA1V1; [12]): 2.9%; V1 activation, % of agonist value (human TRPV1; [13]): 84.4%; TRPV1 activation selectivity, in words (human TRPV1): TRPV1 activators which do not modulate TRPA1 or TRPA1V1
CCCCCCC=O [Heptaldehyde] |  |  |  |  |  |  | activation at 100 µM (human TRPA1; [11]): 4.3%; A1V1 activation, % of agonist value (TRPA1V1; [12]): 2.4%; activation at 100 µM (human TRPV1; [13]): 65.3%; TRPV1 activation selectivity, in words (human TRPV1): TRPV1 activators which do not modulate TRPA1 or TRPA1V1
CCCCCC/C=C/C=C/C=O [Trans,trans-2,4-undecadien-1-al] |  |  |  |  |  |  | activation at 100 µM (human TRPA1; [14]): 74%; activation at 1000 µM (human TRPA1; [10]): 86.4%; A1V1 activation, % of agonist value (TRPA1V1; [14]): 38.4%; A1V1 activation, % of agonist value (TRPA1V1; [10]): 85.4%; activation at 100 µM (human TRPV1; Table 1(b), 100 μM (*), relative to capsaicin 350 nM): 87.5%
CCCCCC(O)CC(=O)OCC (stereo not drawn) [Ethyl 3-hydroxyoctanoate] | 97.3 | 76.90 | 28.1 |  |  |  | 
CCCCC/C=C\C/C=C\CCCCCCCC(=O)O [Linoleic acid] |  |  |  | 170.4 | 170 | 24.9 | 
CC1COC(c2ccccc2)O1 (stereo not drawn) [Benzaldehyde propylene glycol acetal] |  | 78.33 |  |  |  |  | A1 activation, % of agonist value (human TRPA1; [1]): 48.03%; V1 activation, % of agonist value (human TRPV1; [2]): 34.38%
CCCC1CC(=O)C=C(C)C1 (stereo not drawn) [3-Methyl-5-propyl-2-cyclohexen-1-one] | 69 | 101.0 | 59.2 |  |  |  | 
CCCCC(=O)C(CCC)Sc1ccoc1C (stereo not drawn) [4-(2-Methyl-3-furylthio)-5-nonanone] |  |  |  |  |  |  | activation at 100 µM (human TRPA1; [15]): 52.5%; A1V1 activation, % of agonist value (TRPA1V1; [15]): 34.1%; A1V1 activation, % of agonist value (TRPA1V1; [16]): 64%; activation at 1000 µM (human TRPV1; [16]): 40.6%
O=C(CCc1ccc(O)cc1)c1c(O)cc(O)cc1O [Phloretin] |  |  |  |  |  |  | activation at 100 µM (human TRPA1; [5]): 160%; A1V1 activation, % of agonist value (TRPA1V1; [5]): 174.3%; activation at 100 µM (human TRPV1; [6]): 122%
CC(=O)C(=O)c1ccccc1 [1-Phenyl-1,2-propanedione] |  |  |  | 105.5 | 98.6 | 66.6 | activation at 100 µM (human TRPA1; [15]): 100%; A1V1 activation, % of agonist value (TRPA1V1; [15]): 71.4%
CCCCOC(=O)c1ccc(O)cc1 [Butylparaben, Butyl 4-hydroxybenzoate] |  |  |  | 98.1 | 105 | 79.1 | activation at 100 µM (human TRPA1; [17]): 98.7%; A1V1 activation, % of agonist value (TRPA1V1; [17]): 127.3%
CCCCC/C=C/CO [Trans-2-Octen-1-ol] |  |  |  | 103.2 | 118 | 26 | 
